According to the NIST ThermoML archive (doi:10.1021/je0601255):

Experiment: xn = mol fraction of the nth substance listed
Conditions: 101 kPa, Liquid; for viscosity: Capillary tube (Ostwald / Ubbelohde) method; for mass density: Pycnometric method

C=C(C)C(=O)OCc1ccccc1 [benzyl methacrylate] + CCCCO
Conditions | mass density, 288.15 K [kg/m3] | mass density, 298.15 K [kg/m3] | mass density, 308.15 K [kg/m3] | mass density, 318.15 K [kg/m3] | viscosity, 288.15 K [mPa·s] | viscosity, 298.15 K [mPa·s] | viscosity, 308.15 K [mPa·s] | viscosity, 318.15 K [mPa·s]
x2 = 0 | 1041.2 | 1034.7 | 1025.8 | 1017 | 2.871 | 2.302 | 1.885 | 1.58
x2 = 0.1 | 1027.8 | 1021.3 | 1012.5 | 1003.9 | 2.655 | 2.123 | 1.746 | 1.455
x2 = 0.2 | 1013.3 | 1006.8 | 998.1 | 989.5 | 2.519 | 2.021 | 1.656 | 1.388
x2 = 0.3 | 997.5 | 990.9 | 982.3 | 973.8 | 2.462 | 1.958 | 1.605 | 1.342
x2 = 0.4 | 979.9 | 973.3 | 964.8 | 956.4 | 2.41 | 1.919 | 1.568 | 1.308
x2 = 0.5 | 960.3 | 953.7 | 945.3 | 937 | 2.384 | 1.868 | 1.525 | 1.272
x2 = 0.6 | 938.3 | 931.6 | 923.4 | 915.2 | 2.375 | 1.834 | 1.505 | 1.247
x2 = 0.7 | 913.2 | 906.6 | 898.5 | 890.4 | 2.427 | 1.863 | 1.508 | 1.244
x2 = 0.8 | 884.5 | 877.9 | 869.9 | 862 | 2.51 | 1.982 | 1.59 | 1.302
x2 = 0.9 | 851.3 | 844.6 | 836.8 | 829.1 | 2.704 | 2.168 | 1.727 | 1.394

C=C(C)C(=O)OCCO [2-hydroxyethyl 2-methyl-2-propenoate] + CCCCO
Conditions | mass density, 288.15 K [kg/m3] | mass density, 298.15 K [kg/m3] | mass density, 308.15 K [kg/m3] | mass density, 318.15 K [kg/m3] | viscosity, 288.15 K [mPa·s] | viscosity, 298.15 K [mPa·s] | viscosity, 308.15 K [mPa·s] | viscosity, 318.15 K [mPa·s]
x2 = 0 | 1074.7 | 1067.1 | 1057.7 | 1048.6 | 8.234 | 5.784 | 4.194 | 3.181
x2 = 0.1 | 1054.5 | 1047.1 | 1037.9 | 1029.1 | 7.303 | 5.188 | 3.822 | 2.963
x2 = 0.2 | 1033.3 | 1025.9 | 1016.9 | 1008.3 | 6.437 | 4.643 | 3.432 | 2.692
x2 = 0.3 | 1010.9 | 1003.6 | 994.8 | 986.3 | 5.681 | 4.154 | 3.109 | 2.43
x2 = 0.4 | 987.3 | 980 | 971.3 | 963 | 5.118 | 3.738 | 2.829 | 2.222
x2 = 0.5 | 962.2 | 955.1 | 946.6 | 938.3 | 4.633 | 3.398 | 2.598 | 2.051
x2 = 0.6 | 935.7 | 928.6 | 920.3 | 912.1 | 4.195 | 3.092 | 2.399 | 1.9
x2 = 0.7 | 907.6 | 900.6 | 892.4 | 884.4 | 3.833 | 2.834 | 2.212 | 1.759
x2 = 0.8 | 877.7 | 870.8 | 862.9 | 855 | 3.534 | 2.666 | 2.089 | 1.657
x2 = 0.9 | 846 | 839.2 | 831.5 | 823.8 | 3.321 | 2.583 | 2.018 | 1.609

C=C(C)C(=O)O [2-methyl-2-propenoic acid] + CCCCO
Conditions | mass density, 288.15 K [kg/m3] | mass density, 298.15 K [kg/m3] | mass density, 308.15 K [kg/m3] | mass density, 318.15 K [kg/m3] | viscosity, 288.15 K [mPa·s] | viscosity, 298.15 K [mPa·s] | viscosity, 308.15 K [mPa·s] | viscosity, 318.15 K [mPa·s]
x2 = 0 | 1018.3 | 1009.5 | 999.4 | 989.2 | 1.447 | 1.267 | 1.078 | 0.945
x2 = 0.1 | 996.3 | 987.7 | 978 | 968.1 | 1.632 | 1.4 | 1.174 | 1.015
x2 = 0.2 | 974.7 | 966.5 | 957.4 | 948.1 | 1.818 | 1.534 | 1.275 | 1.09
x2 = 0.3 | 954.3 | 946.3 | 937.7 | 928.7 | 2.009 | 1.672 | 1.377 | 1.16
x2 = 0.4 | 934.2 | 926.6 | 918.1 | 909.3 | 2.2 | 1.81 | 1.476 | 1.227
x2 = 0.5 | 914.2 | 907 | 898.6 | 890.1 | 2.392 | 1.947 | 1.574 | 1.294
x2 = 0.6 | 894.2 | 887.4 | 879 | 870.6 | 2.576 | 2.079 | 1.667 | 1.355
x2 = 0.7 | 874.1 | 867.3 | 859.1 | 851 | 2.756 | 2.204 | 1.756 | 1.413
x2 = 0.8 | 853.7 | 847 | 839.2 | 831.4 | 2.935 | 2.329 | 1.842 | 1.466
x2 = 0.9 | 832.9 | 826.7 | 819.1 | 811.5 | 3.111 | 2.453 | 1.925 | 1.515
